Read-outs that look alike come from different tables or passages of the source.
Key:
[1] = Muscle levels 24 hours after intramuscular injection; type: in vivo, Balb/C mice; conditions: for detection in muscle 24 hours after intramuscular injection / concentration at 24 h: 100 μg; for concentration at 24 h: Balb/C, mouse, muscle, intramuscular, 100 μg i.m.
[2] = target: T1, human TLR7 (Homo sapiens, UniProt Q9NYK1); assay: HEK293 human TLR7 NF-κB luciferase reporter assay; type: cell-based; conditions: HEK293 cells
T1 construct: expressed in transfected cells; host or cells: HEK293
T1 sequence (Q9NYK1 27-1049): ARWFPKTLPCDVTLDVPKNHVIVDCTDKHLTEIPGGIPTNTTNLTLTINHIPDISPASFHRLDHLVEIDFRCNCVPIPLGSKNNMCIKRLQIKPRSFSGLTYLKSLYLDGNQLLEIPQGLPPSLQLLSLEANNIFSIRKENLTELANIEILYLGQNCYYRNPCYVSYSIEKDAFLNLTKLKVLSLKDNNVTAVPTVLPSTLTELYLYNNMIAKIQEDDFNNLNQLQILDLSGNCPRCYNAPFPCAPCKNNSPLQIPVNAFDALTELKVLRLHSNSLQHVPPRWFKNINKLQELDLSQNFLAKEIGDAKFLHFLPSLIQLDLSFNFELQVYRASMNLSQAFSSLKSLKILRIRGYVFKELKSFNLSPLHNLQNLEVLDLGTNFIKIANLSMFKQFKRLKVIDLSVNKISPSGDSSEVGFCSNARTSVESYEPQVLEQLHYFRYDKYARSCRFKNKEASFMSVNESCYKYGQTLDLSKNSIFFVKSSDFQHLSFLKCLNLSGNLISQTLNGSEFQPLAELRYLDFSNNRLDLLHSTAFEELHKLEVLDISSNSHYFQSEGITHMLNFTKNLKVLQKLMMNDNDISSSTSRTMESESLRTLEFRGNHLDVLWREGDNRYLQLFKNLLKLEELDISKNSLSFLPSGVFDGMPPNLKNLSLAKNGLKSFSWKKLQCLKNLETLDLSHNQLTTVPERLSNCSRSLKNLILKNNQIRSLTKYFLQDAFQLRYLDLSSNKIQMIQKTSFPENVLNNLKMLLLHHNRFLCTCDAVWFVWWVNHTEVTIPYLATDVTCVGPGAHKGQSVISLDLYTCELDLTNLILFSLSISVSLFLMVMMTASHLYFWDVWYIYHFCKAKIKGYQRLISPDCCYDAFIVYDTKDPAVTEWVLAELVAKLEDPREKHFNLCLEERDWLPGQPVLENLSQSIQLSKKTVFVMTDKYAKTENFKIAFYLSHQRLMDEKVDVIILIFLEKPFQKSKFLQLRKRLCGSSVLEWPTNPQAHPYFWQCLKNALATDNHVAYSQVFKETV
Method: The activity of this compound is assessed in an assay using HEK293 cells which are stably transfected with human TLR7 and an NF-κB-driven luciferase reporter vector (pNifty-Luciferase). As a control assay, normal HEK293 transfected with pNifty-Luc are used. Cells are cultured in DMEM supplemented with 2 mM L-glutamine, 10% heart inactivated FBS, 1% penicillin and streptomycin, 2 μg/ml puromycin and 5 μg/ml of blasticidin. Bright-Glo™ Luciferase assay buffer and substrate are supplied by Promega. Cells are plated at 25,000 cells/well in 384-well plates in a final volume of 50 μl of media. Cells are allowed to adhere to the plates after overnight (18 hours) culture at 37° C. and 5% CO2. Serially-diluted experimental and positive control compounds are then dispensed to each well and incubated for 7 hours at 37° C. and 5% CO2. Cells stimulated with DMSO alone serve as negative controls. After the incubation, 30 μl of the pre-mix assay buffer and substrate buffer are added to each well according to manufacturer's instructions. The luminescence signal is read on a CLIPR machine with an integration time of 20 seconds per plate.

[3] = Water solubility; type: physicochemical; conditions: read-out: water-soluble at
[4] = test system: serum cytokines; assay: Serum cytokines after administration; conditions: in vivo
[5] = test system: serogroup B meningococcus; type: in vivo, CD-1 mice; conditions: 5CVMB at days 0 & 14 with (b) the agonist compound
[6] = Systemic serum exposure after intramuscular injection; type: in vivo, Balb/C mice; conditions: Balb/C, mouse; for AUC: im, 100 μg i.m.; for Cmax: intramuscular, 100 μg
[7] = type: physicochemical; conditions: SDS-PAGE of supernatants
[8] = Model of in vivo desorption from Al—H; type: in vitro ADME; conditions: 37° C.
[9] = Desorption from Al—H by phosphate / buffer anions; type: physicochemical; conditions: KH2PO4 0.5M final, pH 9, overnight at 37° C.
[10] = Solubility in histidine buffer at pH 6.8; type: physicochemical
[11] = Adsorption to aluminium hydroxide (Al—H), HPLC of supernatant; type: physicochemical; conditions: parent compound, in words
[12] = Confocal microscopy / flow cytometry of association with Al—H; type: physicochemical; conditions: in the presence of Al—H
[13] = +Al—H (adsorbed), read-out: Levels of compound in muscle 24 hours after injection
[14] = 100 ug, compound alone, 24 hours
[15] = SIF (simulated interstitial fluid)
[16] = 100 ug, TLR2 agonists, compound alone
[17] = TLR2 agonists, +Al—H (adsorbed)

With `CCCCCNc1nc(N)nc(C)c1Cc1ccc(OCCOCCC(F)(F)P(=O)(O)O)cc1OC` [Compound 71, (3-(2-(4-((2-amino-4-methyl-6-(pentylamino)pyrimidin-5-yl)methyl)-3-methoxyphenoxy)ethoxy)-1,1-difluoropropyl)phosphonic acid] the “detection in muscle 24 hours after intramuscular injection” value (from here on “detection in muscle 24 hours”) ([1]; injected with Al—H) was “readily detected”, the “detection in muscle 24 hours” value ([1]; without Al—H (free form)) was “undetectable” and the concentration at 24 h [1, 13] was 924 nM. For the same compound, the concentration at 24 h ([1]; compound alone) was 0 nM, the EC50 [2] was 2.7 µM and the solubility [3] was > 1000 µg/mL. For the same compound, the “effect of adsorption to Al—H on systemic cytokines” value (“effect of adsorption to Al—H” for short) [4] was “generally reduced or unaffected”, the “SBA titers at day 28” value [5] was 65 and the AUC [6, 14] was 2.09 µM·h. For the same compound, the AUC ([6]; +Al—H (adsorbed), 24 hours) was 4.22 µM·h, the Cmax ([6]; +Al—H (adsorbed)) was 1810 nM and the Cmax ([6]; compound alone) was 2600 nM.
With `Cc1cc(OCCCC(F)(F)P(=O)(O)O)ccc1CCc1cnc2c(N)nc3cc(CCC(=O)O)ccc3c2c1` [Compound 3] the “detection in muscle 24 hours” value ([1]; injected with Al—H) was “readily detected”, the “detection in muscle 24 hours” value ([1]; without Al—H (free form)) was “undetectable” and the “adsorption of MenB antigens to Al—H after pre-adsorption of compound” value [7] was “completely adsorbed”. For the same compound, the solubility [3] was > 1000 µg/mL, the “proportion desorbed after 5 hours” value ([8]; His buff) was 5% and the “proportion desorbed after 5 hours” value ([8]; Plasma/His buff) was 49%. The “proportion desorbed after 5 hours” value [8, 15] was 100%.
With `Cc1cc(OCCOCCOCCC(F)(F)P(=O)(O)O)ccc1CCc1cnc2c(N)nc3cc(CCC(=O)O)ccc3c2c1` [Compound 4] the “detection in muscle 24 hours” value ([1]; injected with Al—H) was “readily detected”, the “detection in muscle 24 hours” value ([1]; without Al—H (free form)) was “undetectable” and the “adsorption of MenB antigens to Al—H after pre-adsorption of compound” value [7] was “completely adsorbed”. The solubility [3] was > 1000 µg/mL, the “proportion desorbed after 5 hours” value ([8]; His buff) was 4% and the “proportion desorbed after 5 hours” value ([8]; Plasma/His buff) was 81%. The “proportion desorbed after 5 hours” value [8, 15] was 100%.
For `Cc1ccc2c(c1)nc(N)c1ncc(CCc3ccc(OCCCP(=O)(O)O)cc3C)cc12` [Compound 13], the “compound in supernatant after KH2PO4 treatment (displacement / desorption)” value [9] was “Increased quantities”, the “solubility in histidine buffer” value [10] was “poorly soluble” and the “proportion desorbed after 5 hours” value ([8]; His buff) was 2%. The “proportion desorbed after 5 hours” value ([8]; Plasma/His buff) was 9% and the “proportion desorbed after 5 hours” value [8, 15] was 4%.
`CCCCCNc1nc(N)nc(C)c1Cc1ccc(CP(=O)(O)O)cc1OC` [Compound 8] gave an EC50 [2] of 7.3 µM.
For `Cc1ccc(CCc2cnc3c(N)nc4cc(C)ccc4c3c2)c(C)c1` [compound O], the “adsorption to the Al—H adjuvant” value [11] was “fails to adsorb” and the “co-localisation with Al—H (flow cytometry)” value [12] was “separate population”.
`CCCCCCCCCCCCOC[C@H](CSC[C@H](N)C(=O)NCCOCCOCCOCCP(=O)(O)O)OCCCCCCCCCCCC` [Compound 74, ((14R,18R)-14-amino-18-(dodecyloxy)-13-oxo-3,6,9,20-tetraoxa-16-thia-12-azadotriacontyl)phosphonic acid] gave a concentration at 24 h [1, 13] of 49000 nM, a concentration at 24 h ([1]; compound alone) of 27800 nM and an AUC [6, 16] of 37.4 µM·h. For the same compound, the AUC [6, 17] was 3.39 µM·h, the Cmax ([6]; +Al—H (adsorbed)) was 317 nM and the Cmax ([6]; compound alone) was 1940 nM.
In the case of `CCCCCCCCCCCC(=O)OC[C@H](CSC[C@H](N)C(=O)NC1(COCCCP(=O)(O)O)CC1)OC(=O)CCCCCCCCCCC` [Compound 22, (3-((1-((R)-2-amino-3-(((R)-2,3-bis(dodecanoyloxy)propyl)thio)propanamido)cyclopropyl)methoxy)propyl)phosphonic acid], the concentration at 24 h [1, 13] is reported as 25300 nM and the concentration at 24 h ([1]; compound alone) is reported as 0 nM.
`CCCCCCCCCCCC(=O)OC[C@H](CSC[C@H](N)C(=O)NCCOCCOCCOCCP(=O)(O)O)OC(=O)CCCCCCCCCCC` [Compound 72, ((14R,18R)-14-amino-18-(dodecanoyloxy)-13,21-dioxo-3,6,9,20-tetraoxa-16-thia-12-azadotriacontyl)phosphonic acid] showed a concentration at 24 h [1, 13] of 14500 nM and a concentration at 24 h ([1]; compound alone) of 0 nM.
With `COCCOc1nc(N)c2nc(O)n(Cc3ccc(CP(=O)(O)O)cc3)c2n1` [Compound 6, (4-((6-amino-2-(2-methoxyethoxy)-8-oxo-7H-purin-9(8H)-yl)methyl)benzyl)phosphonic acid] the “detection in muscle 24 hours” value ([1]; without Al—H (free form)) was “undetectable”, the concentration at 24 h [1, 13] was 2770 nM and the concentration at 24 h ([1]; compound alone) was 0 nM. For the same compound, the “detection in inguinal lymph nodes or in liver” value ([1]; after 24 hours) was “could not be detected”, the EC50 [2] was 0.41 µM and the solubility [3] was > 1000 µg/mL. For the same compound, the AUC [6, 14] was 7.18 µM·h, the AUC ([6]; +Al—H (adsorbed), 24 hours) was 13.4 µM·h and the Cmax ([6]; +Al—H (adsorbed)) was 5520 nM. For the same compound, the Cmax ([6]; compound alone) was 6120 nM.
Compound `CCOCc1nc2c(N)nc3ccccc3c2n1CCOCCP(=O)(O)O` [Compound 7] has an EC50 [2] of 66 µM.
In the case of `CCCCCNc1nc(N)nc(C)c1Cc1ccc(CP(=O)(O)O)cc1` [Compound 69], the EC50 [2] is reported as 47.4 µM.
With `COCCOc1cc2c(nc(O)n2Cc2ccc(CP(=O)(O)O)cc2)c(N)n1` [Compound 67, (4-((4-amino-6-(2-methoxyethoxy)-2-oxo-2,3-dihydro-1H-imidazo[4,5-c]pyridin-1-yl)methyl)benzyl)phosphonic acid] the “detection in muscle 24 hours” value ([1]; injected with Al—H) was “readily detected”, the “detection in muscle 24 hours” value ([1]; without Al—H (free form)) was “undetectable” and the concentration at 24 h [1, 13] was 2880 nM. The concentration at 24 h ([1]; compound alone) was 0 nM, the EC50 [2] was 6.5 µM and the solubility [3] was > 1000 µg/mL. The “effect of adsorption to Al—H” value [4] was “generally reduced or unaffected”, the “SBA titers at day 28” value [5] was 64 and the AUC [6, 14] was 3.57 µM·h. For the same compound, the AUC ([6]; +Al—H (adsorbed), 24 hours) was 8.11 µM·h, the Cmax ([6]; +Al—H (adsorbed)) was 4510 nM and the Cmax ([6]; compound alone) was 4060 nM.
In the case of `CCOCc1nc2c(N)nc3ccccc3c2n1CCOCCOCCOCCP(=O)(O)O` [Compound 68, (2-(2-(2-(2-(4-amino-2-(ethoxymethyl)-1H-imidazo[4,5-c]quinolin-1-yl)ethoxy)ethoxy)ethoxy)ethyl)phosphonic acid], the “detection in muscle 24 hours” value ([1]; injected with Al—H) is reported as “readily detected”, the “detection in muscle 24 hours” value ([1]; without Al—H (free form)) is reported as “undetectable” and the concentration at 24 h [1, 13] is reported as 502 nM. For the same compound, the concentration at 24 h ([1]; compound alone) was 0 nM, the EC50 [2] was 28 µM and the solubility [3] was > 1000 µg/mL. The “effect of adsorption to Al—H” value [4] was “generally reduced or unaffected”, the AUC [6, 14] was 1.39 µM·h and the AUC ([6]; +Al—H (adsorbed), 24 hours) was 2.76 µM·h. The Cmax ([6]; +Al—H (adsorbed)) was 1720 nM and the Cmax ([6]; compound alone) was 2120 nM.
For `CCCCCCCCCCCCOC[C@H](CSC[C@H](N)C(=O)NCCOCCOCCOCCP(=O)(O)O)NC(=O)CCCCCCCCCCC` [Compound 80, ((14R,18R)-14-amino-18-dodecanamido-13-oxo-3,6,9,20-tetraoxa-16-thia-12-azadotriacontyl)phosphonic acid], the concentration at 24 h [1, 13] was 47200 nM, the concentration at 24 h ([1]; compound alone) was 5070 nM and the AUC [6, 16] was 20.7 µM·h. The AUC [6, 17] was 7.26 µM·h, the Cmax ([6]; +Al—H (adsorbed)) was 180 nM and the Cmax ([6]; compound alone) was 2820 nM.

Source: patent US20120177681A1, “Formulation of immunopotentiators” (priority 2010, published 2012)
